# Data: patent US20260216123A1, “PHARMACEUTICAL COMPOSITION FOR PREVENTING OR TREATING DEGENERATIVE OSTEOARTHRITIS” (GLACEUM INC., priority 2023, published 2026)
# Tests used:
# Format in all cases: in vivo
# MIA-induced OA rat model [1] = assay: Pain suppression (nociceptive pain threshold, dynamic plantar aesthesiometer) in MIA-induced OA rat model; settings: FIG. 1
# Procedure: All animals were allowed to acclimatize for one week after introduction to the laboratory environment. On the day of the start of the experiment, monosodium iodoacetate (MIA, Sigma, Cat. No. 12512) was dissolved in saline for injection at a concentration of 30 mg/mL, and 50 μL of the solution was administered once on the day of the start of the experiment. The animals were divided into groups as follows. The animals were randomly distributed so that the average of each group was distributed as evenly as possible according to the pain threshold evaluation values ranked, so as to obtain the number specified in the “Constitution of Test Groups” table. Individual identification was done by writing numbers directly on the tails of the animals. Individual identification cards of different colors were attached to the housing boxes according to each dose. […]
# The nociceptive pain threshold (g) was measured using a dynamic plantar aesthesiometer (Ugo Basile, 37400, Comerio, Italy), a device in which the force applied to the animal's paw gradually increases over a certain period of time. […] The results for the nociceptive pain threshold were calculated as paw withdrawal latency (sec) and paw withdrawal threshold (g).
# MIA-induced OA rat model [2] = assay: Weight bearing (incapacitance meter) in MIA-induced OA rat model; settings: FIG. 2
# Procedure: All animals were allowed to acclimatize for one week after introduction to the laboratory environment. On the day of the start of the experiment, monosodium iodoacetate (MIA, Sigma, Cat. No. 12512) was dissolved in saline for injection at a concentration of 30 mg/mL, and 50 μL of the solution was administered once on the day of the start of the experiment. The animals were divided into groups as follows. The animals were randomly distributed so that the average of each group was distributed as evenly as possible according to the pain threshold evaluation values ranked, so as to obtain the number specified in the “Constitution of Test Groups” table. Individual identification was done by writing numbers directly on the tails of the animals. […]
# Weight bearing was measured using the same model as that in Experimental Example 1. […] The weight bearing of each hind paw was measured using an incapacitance meter (Model 600, IITC, USA), a device for measuring weight bearing. […]
# When each animal was correctly positioned in the holder, the machine was operated, the measurement time was set to 5 seconds, and a total of two measurements were taken and averaged to determine the weight bearing (g) of each paw. […] The results of the weight-bearing measurement test were converted into weight bearing ratio using the following calculation formula and analyzed.
# [3] = test system: knee joint tissue of MIA-OA rat model; assay: Histopathological analysis of knee joint tissue (Safranin O staining, OARSI and Mankin scores) in MIA-OA animal model
# Procedure: All animals were allowed to acclimatize for one week after introduction to the laboratory environment. On the day of the start of the experiment, monosodium iodoacetate (MIA, Sigma, Cat. No. 12512) was dissolved in saline for injection at a concentration of 30 mg/mL, and 50 μL of the solution was administered once on the day of the start of the experiment. The animals were divided into groups as follows. The animals were randomly distributed so that the average of each group was distributed as evenly as possible according to the pain threshold evaluation values ranked, so as to obtain the number specified in the “Constitution of Test Groups” table. Individual identification was done by writing numbers directly on the tails of the animals. Individual identification cards of different colors were attached to the housing boxes according to each dose. An animal room usage record sheet containing the test number, animal room usage period, principal investigator name, subinvestigator name, emergency contact information, etc. was attached to the animal room entrance. The test groups consisted of WT, vehicle, 25 mg/kg Compound 2, and 50 mg/kg Compound 2, respectively, which were administered orally once a day for a total of 21 days starting from 3 days after MIA administration.
# Histopathological analysis of knee joint tissue was performed using the same model as that in Experimental Example 1. For histopathological analysis, Safranin 0 staining was performed, and two evaluators scored the severity of osteoarthritis according to the following evaluation criteria. As the analysis criteria, OARSI and total Mankin scores were analyzed. The OARSI analysis criteria were scored as follows: 0: normal cartilage surface; 1: cartilage surface is normal but cell death is found; 2: disruption of the cartilage surface and fibrosis of the surface layer; 3: splitting along the longitudinal axis of cartilage; 4: damage and infiltration to the middle part of cartilage; 5: exposure of stromal bone area; and 6: complete cartilage damage and formation of osteophytes. The total Mankin score analysis criteria were analyzed for four items: structure (0-6), cell (0-3), Safranin 0 (0-4), and tidemark (0-1). A higher score for each item indicates more damage to chondrocytes cells and structure.
# IL-6 = assay: Immunohistochemical analysis of knee joint tissue in MIA-OA animal model: IL-6; settings: MIA-OA rat; immunohistochemistry; FIG. 5
# Procedure: (§1) All animals were allowed to acclimatize for one week after introduction to the laboratory environment. On the day of the start of the experiment, monosodium iodoacetate (MIA, Sigma, Cat. No. 12512) was dissolved in saline for injection at a concentration of 30 mg/mL, and 50 μL of the solution was administered once on the day of the start of the experiment. The animals were divided into groups as follows. The animals were randomly distributed so that the average of each group was distributed as evenly as possible according to the pain threshold evaluation values ranked, so as to obtain the number specified in the “Constitution of Test Groups” table. Individual identification was done by writing numbers directly on the tails of the animals. Individual identification cards of different colors were attached to the housing boxes according to each dose. An animal room usage record sheet containing the test number, animal room usage period, principal investigator name, subinvestigator name, emergency contact information, etc. was attached to the animal room entrance. […]
# (§2) The histopathological analysis of knee joint tissue was performed using the same model as that in Experimental Example 1. […] Then, the Dab-positive area expressing each cytokine in the synovium was extracted using ImageJ software (Wayne Rasband, NIH, USA) and expressed as a percentage relative to the total nuclear area.
# MCP-1 = assay: Immunohistochemical analysis of knee joint tissue in MIA-OA animal model: MCP-1; settings: MIA-OA rat; immunohistochemistry; FIG. 6
# Procedure: as §1, §2
# MMP3 = assay: Immunohistochemical analysis of knee joint tissue in MIA-OA animal model: MMP3; settings: MIA-OA rat; immunohistochemistry; FIG. 7
# Procedure: as §1, §2
# RIPK3 = assay: Immunohistochemical analysis of knee joint tissue in MIA-OA animal model: RIPK3; settings: MIA-OA rat; immunohistochemistry; FIG. 8
# Procedure: as §1, §2
# [4] = oral once a day, 21 days, FIG. 4
compound,measurement,setting,value
CCOc1ccc(C2COc3c(ccc4c3CCC(C)(C)O4)C2)c(O)c1 (centres unmarked) [Compound 2],pain caused by cartilage damage (nociceptive pain threshold),MIA-induced OA rat model [1]; 25 mg/kg and 50 mg/kg orally once a day for 21 days from 3 days after MIA,gradually reduced
same,pain suppression efficacy compared with positive control celecoxib,"MIA-induced OA rat model [1]; oral once a day, 21 days","efficacy equivalent to that of the positive control, celecoxib"
same,weight bearing following cartilage damage,MIA-induced OA rat model [2]; 25 mg/kg and 50 mg/kg orally once a day for 21 days,reduced
same,weight bearing efficacy compared with positive control celecoxib,"MIA-induced OA rat model [2]; oral once a day, 21 days",efficacy equivalent to that of celecoxib
same,histopathology score efficacy compared with positive control celecoxib,"[3]; OARSI and Mankin scores, FIG. 4",efficacy equivalent to that of celecoxib
same,Safranin 0 staining of the cartilage tissue,"[3]; oral once a day, 21 days, FIG. 3",improved
same,Mankin score (severity of osteoarthritis),[3]; [4],reduced
same,ORASI score (severity of osteoarthritis),[3]; [4],reduced
same,IL-6 in knee joint tissue (Dab-positive area),IL-6,inhibited
same,MCP-1 in knee joint tissue (Dab-positive area),MCP-1,inhibited
same,MMP3 in knee joint tissue (Dab-positive area),MMP3,reduced
same,MMP3 reduction efficacy compared with positive control celecoxib,MMP3,better efficacy than celecoxib
same,RIPK3 in knee joint tissue (Dab-positive area),RIPK3,inhibited
same,RIPK3 inhibition efficacy compared with positive control celecoxib,RIPK3,better efficacy than celecoxib
